From patent US12180198B2, “Ribocil C antibiotics effective for Gram-negative pathogens” (THE BOARD OF TRUSTEES OF THE UNIVERSITY OF ILLINOIS, priority 2018, dated 2024)
Counter-ions that a name gives are not always drawn. Like-named read-outs stand apart in the source and are kept apart here.

Assays:
A. baumannii BAA-2093 = assay: Bioactivity against exemplary strains of bacteria (Table 5A); assay type: cell-based; conditions: Strain 3: A. baumannii BAA-2093
E. coli BAA-2469 [1] = assay: as above; assay type: cell-based; set-up: unit not given here; conditions: Strain 2: E. coli BAA-2469
K. pneumoniae BAA-2146 = assay: as above; assay type: cell-based; conditions: Strain 4: K. pneumoniae BAA-2146
[2] = tested on: E. coli strains with intact outer membranes; assay: MIC, micro-dilution broth method (text summary); assay type: cell-based; conditions: E. coli strains with intact outer membranes
Experimental: FIG. 2. Antimicrobial activity of Debio-1452 and derivatives. MIC values were determined using the micro-dilution broth method as outlined by the Clinical and Laboratory Standards Institute (clsi.org/). All experiments were performed in biological triplicate.
(§1) Antimicrobial susceptibility tests. Susceptibility testing was performed in biological triplicate, using the micro-dilution broth method as outlined by the Clinical and Laboratory Standards Institute. Bacteria were cultured with cation-adjusted Muller-Hinton broth (Sigma-Aldrich, Cat #90922) in round-bottom 96-well plates (Corning, Cat #3788). Human serum (pooled gender, 0.2 μm filtered) was purchased from BioIVT (Hicksville, NY).

E. coli ΔtolC JW5503 = assay: MIC, micro-dilution broth method; assay type: cell-based; conditions: Escherichia coli
Experimental: (§2) Compounds were evaluated against a panel of Gram-positive and Gram-negative organisms. MIC values were determined using the micro-dilution broth method as outlined by the Clinical and Laboratory Standards Institute (clsi.org/) and are listed in […]. All experiments were performed in biological triplicate.
as §1

E. coli BAA-2471 = assay: MIC, micro-dilution broth method; assay type: cell-based; conditions: Escherichia coli, BAA2471; E. coli BAA-2471; read-out: MIC
Experimental: as §2, §1

A. baumannii KB343 = assay: MIC, micro-dilution broth method; assay type: cell-based; conditions: Acinetobacter baumannii; A. baumannii KB343; read-out: MIC
Experimental: as §2, §1

K. pneumoniae S47889 = assay: MIC, micro-dilution broth method; assay type: cell-based; conditions: Klebsiella pneumoniae; K. pneumoniae S47889; read-out: MIC
Experimental: as §2, §1

K. pneumoniae BAA-2470 = assay: MIC, micro-dilution broth method; assay type: cell-based; conditions: Klebsiella pneumoniae, BAA2470; K. pneumoniae BAA-2470; read-out: MIC
Experimental: as §2, §1

K. pneumoniae AR-0347 = assay: MIC, micro-dilution broth method; assay type: cell-based; conditions: Klebsiella pneumoniae, AR0347; K. pneumoniae AR-0347; read-out: MIC
Experimental: as §2, §1

K. pneumoniae S20595 = assay: MIC, micro-dilution broth method; assay type: cell-based; conditions: Klebsiella pneumoniae; K. pneumoniae S20595; read-out: MIC
Experimental: as §2, §1

E. coli AR-0346 = assay: MIC, micro-dilution broth method; assay type: cell-based; conditions: Escherichia coli, AR0346; E. coli AR-0346; read-out: MIC
Experimental: as §2, §1

A. baumannii F19521 = assay: MIC, micro-dilution broth method; assay type: cell-based; conditions: Acinetobacter baumannii; A. baumannii F19521; read-out: MIC
Experimental: as §2, §1

K. pneumoniae M14723 = assay: MIC, micro-dilution broth method; assay type: cell-based; conditions: Klebsiella pneumoniae; K. pneumoniae M14723; read-out: MIC
Experimental: as §2, §1

A. baumannii W41979 = assay: MIC, micro-dilution broth method; assay type: cell-based; conditions: Acinetobacter baumannii; A. baumannii W41979; read-out: MIC
Experimental: as §2, §1

E. coli ΔrfaC JW3596 = assay: MIC, micro-dilution broth method; assay type: cell-based; conditions: Escherichia coli
Experimental: as §2, §1

K. pneumoniae BAA-2473 = assay: MIC, micro-dilution broth method; assay type: cell-based; conditions: Klebsiella pneumoniae, BAA2473; K. pneumoniae BAA-2473; read-out: MIC
Experimental: as §2, §1

K. pneumoniae BAA-1705 = assay: MIC, micro-dilution broth method; assay type: cell-based; conditions: Klebsiella pneumoniae, BAA1705; K. pneumoniae BAA-1705; read-out: MIC
Experimental: as §2, §1

A. baumannii KB357 = assay: MIC, micro-dilution broth method; assay type: cell-based; conditions: Acinetobacter baumannii; A. baumannii KB357; read-out: MIC
Experimental: as §2, §1

A. baumannii KB304 = assay: MIC, micro-dilution broth method; assay type: cell-based; conditions: Acinetobacter baumannii; A. baumannii KB304; read-out: MIC
Experimental: as §2, §1

E. coli AR-0349 = assay: MIC, micro-dilution broth method; assay type: cell-based; conditions: Escherichia coli, AR0349; E. coli AR-0349; read-out: MIC
Experimental: as §2, §1

K. pneumoniae M67297 = assay: MIC, micro-dilution broth method; assay type: cell-based; conditions: Klebsiella pneumoniae; K. pneumoniae M67297; read-out: MIC
Experimental: as §2, §1

K. pneumoniae BAA-2472 = assay: MIC, micro-dilution broth method; assay type: cell-based; conditions: Klebsiella pneumoniae, BAA2472; K. pneumoniae BAA-2472; read-out: MIC
Experimental: as §2, §1

E. coli MG1655 = assay: MIC, micro-dilution broth method; assay type: cell-based; conditions: Escherichia coli
Experimental: as §2, §1

E. cloacae BAA-2341 = assay: MIC, micro-dilution broth method; assay type: cell-based; conditions: Enterobacter cloacae, BAA2341; E. cloacae BAA-2341; read-out: MIC
Experimental: as §2, §1

E. cloacae BAA-2468 = assay: MIC, micro-dilution broth method; assay type: cell-based; conditions: Enterobacter cloacae, BAA2468; E. cloacae BAA-2468; read-out: MIC
Experimental: as §2, §1

E. coli AR-0495 = assay: MIC, micro-dilution broth method; assay type: cell-based; conditions: Escherichia coli, AR0495; E. coli AR-0495; read-out: MIC
Experimental: as §2, §1

S. aureus ATCC 29213 = assay: MIC, micro-dilution broth method; assay type: cell-based; conditions: Staphylococcus aureus, ATCC29213, S. aureus ATCC 29213
Experimental: as §2, §1

K. pneumoniae BAA-2342 = assay: MIC, micro-dilution broth method; assay type: cell-based; conditions: Klebsiella pneumoniae, BAA2342; K. pneumoniae BAA-2342; read-out: MIC
Experimental: as §2, §1

A. baumannii WO22 = assay: MIC, micro-dilution broth method; assay type: cell-based; conditions: Acinetobacter baumannii; A. baumannii WO22; read-out: MIC
Experimental: as §2, §1

E. cloacae S28901.1 = assay: MIC, micro-dilution broth method; assay type: cell-based; conditions: Enterobacter cloacae; E. cloacae S28901.1; read-out: MIC
Experimental: as §2, §1

E. coli BAA-2469 [3] = assay: MIC, micro-dilution broth method; assay type: cell-based; conditions: Escherichia coli, BAA2469; E. coli BAA-2469; read-out: MIC
Experimental: as §2, §1

K. pneumoniae M67198 = assay: MIC, micro-dilution broth method; assay type: cell-based; conditions: Klebsiella pneumoniae; K. pneumoniae M67198; read-out: MIC
Experimental: as §2, §1

A. baumannii M13100 = assay: MIC, micro-dilution broth method; assay type: cell-based; conditions: Acinetobacter baumannii; A. baumannii M13100; read-out: MIC
Experimental: as §2, §1

E. coli AR-0493 = assay: MIC, micro-dilution broth method; assay type: cell-based; conditions: Escherichia coli, AR0493; E. coli AR-0493; read-out: MIC
Experimental: as §2, §1

Mouse MTD = conditions: mice, IP injection, single dose, monitored 2 weeks
Experimental: The protocol was approved by the IACUC at the University of Illinois at Urbana-Champaign (Protocol Number: 16144). In these studies, 10- to 12-week-old female C57BL/6 mice purchased from Charles River were used. The maximum tolerate dose (MTD) of a single compound was determined first. […] For multiple doses, the compound was given by daily IP for 5 consecutive days and mice were monitored for signs of toxicity for 1 month. MTD was the highest dosage with acceptable toxicity (e.g., <20% weight loss). Single dose MTDs were initially determined.

H. sapiens IMR-90 = assay: Cell viability, Alamar Blue; assay type: cell-based; conditions: Homo sapiens, IMR-90, read-out: % inhibition at 30 μM
Experimental: Cell culture. IMR90 cells were obtained from ATCC. IMR90 cells were grown in EMEM with 10% fetal bovine serum (Gemini Benchmark, Cat #100-106), 100 U/mL penicillin, and 100 μg/mL streptomycin. All cells were cultured at 37° C. in a 5% CO2 environment. Media was prepared by the University of Illinois School of Chemical Sciences Cell Media Facility. Sex and age of cell lines: IMR90 ([…]).
Cell viability. Cells seeded (IMR90: 5,000 cells/well) a 96-well plate (Greiner Bio-One, Cat #655180) and were allowed to attach overnight. Cells were treated with investigational compounds in DMSO (30 μM, 1% DMSO final, 100 μL/well). Raptinal (100 μM) was used as a dead control. After 24 h post-treatment, media was exchanged with compound-free media. After 72 h post-treatment, cell viability was assessed using the Alamar Blue method. Stock Alamar Blue solution [10 μL, 440 μM resazurin (Sigma-Aldrich, Cat #R7017) in sterile 1×PBS] was added to each well, and plate was incubated […]. Conversion of Alamar Blue was measured with plate reader (SpectraMax M3, Molecular Devices) by fluorescence (ex 555 nm, em 585 nm, cutoff 570 nm, autogain). Percent death was determined by normalizing to DMSO-treated cells and raptinal-treated cells.

NCc1cnc(-n2cnc(CN3CCCC(c4nc(O)cc(-c5cccs5)n4)C3)c2)nc1 (stereo not drawn) [R13a]
Bioactivity (A. baumannii BAA-2093): >128 | Bioactivity (E. coli BAA-2469 [1]): 16 | Bioactivity (K. pneumoniae BAA-2146): 64

CCN(CC)CCNc1nc(/C=C/c2ccc(Cl)cc2)nc2cc3ccccc3cc12 [Z3, Zantrin Z3, reference compound]
Bioactivity (A. baumannii BAA-2093): 32 | Bioactivity (E. coli BAA-2469 [1]): >64 | Bioactivity (K. pneumoniae BAA-2146): >64

NCCNc1nc(/C=C/c2ccc(Cl)cc2)nc2cc3ccccc3cc12 [Z7, (E)-N^1-(2-(4-chlorostyryl)benzo[g]quinazolin-4-yl)ethane-1,2-diamine]
Bioactivity (A. baumannii BAA-2093): 2 | Bioactivity (E. coli BAA-2469 [1]): 4 | Bioactivity (K. pneumoniae BAA-2146): >32

Cc1ccc2nc(/C=C/c3ccc(Cl)cc3)nc(NCCN)c2c1 [Z14, (E)-N^1-(2-(4-chlorostyryl)-6-methylquinazolin-4-yl)ethane-1,2-diamine]
Bioactivity (A. baumannii BAA-2093): 8 | Bioactivity (E. coli BAA-2469 [1]): 8 | Bioactivity (K. pneumoniae BAA-2146): 64

Cc1c(CN(C)C(=O)/C=C/c2cnc3c(c2)CC(CN)C(=O)N3)oc2ccccc12.Cl (stereo not drawn) [compound 2, (E)-3-(6-(aminomethyl)-7-oxo-5,6,7,8-tetrahydro-1,8-naphthyridin-3-yl)-N-methyl-N-((3-methylbenzofuran-2-yl)methyl)acrylamide hydrochloride]
antibacterial activity (in words) [2]: active | MIC (E. coli ΔtolC JW5503): 0.125 µg/mL | MIC (E. coli BAA-2471): 4 µg/mL | MIC (A. baumannii KB343): > 64 µg/mL | MIC (K. pneumoniae S47889): 8 µg/mL | MIC (K. pneumoniae BAA-2470): 4 µg/mL | MIC (K. pneumoniae AR-0347): 8 µg/mL | MIC (K. pneumoniae S20595): 16 µg/mL | MIC (E. coli AR-0346): 4 µg/mL | MIC (A. baumannii F19521): 16 µg/mL | MIC (K. pneumoniae M14723): 16 µg/mL | MIC (A. baumannii W41979): 16 µg/mL | MIC (E. coli ΔrfaC JW3596): 0.5 µg/mL | MIC (K. pneumoniae BAA-2473): 16 µg/mL | MIC (K. pneumoniae BAA-1705): 16 µg/mL | MIC (A. baumannii KB357): > 64 µg/mL | MIC (A. baumannii KB304): 64 µg/mL | MIC (E. coli AR-0349): 2 µg/mL | MIC (K. pneumoniae M67297): 32 µg/mL | MIC (K. pneumoniae BAA-2472): 16 µg/mL | MIC (E. coli MG1655; E. coli MG1655, read-out: MIC): 8 µg/mL | MIC (E. cloacae BAA-2341): 16 µg/mL | MIC (E. cloacae BAA-2468): 8 µg/mL | MIC (E. coli AR-0495): 2 µg/mL | MIC (S. aureus ATCC 29213; read-out: MIC): 0.03 µg/mL | MIC (K. pneumoniae BAA-2342): 16 µg/mL | MIC (A. baumannii WO22): > 64 µg/mL | MIC (E. cloacae S28901.1): 8 µg/mL | MIC (E. coli BAA-2469 [3]): 2 µg/mL | MIC (K. pneumoniae M67198): 32 µg/mL | MIC (A. baumannii M13100): 16 µg/mL | MIC (E. coli AR-0493): 4 µg/mL

Cc1c(CN(C)C(=O)/C=C/c2cnc3c(c2)CC(CCN)C(=O)N3)oc2ccccc12 (stereo not drawn) [compound 3, (E)-3-(6-(aminoethyl)-7-oxo-5,6,7,8-tetrahydro-1,8-naphthyridin-3-yl)-N-methyl-N-((3-methylbenzofuran-2-yl)methyl)acrylamide hydrochloride]
single dose well tolerated (Mouse MTD): 100 mg/kg | antibacterial activity (in words) [2]: active | inhibition at 30 µM (H. sapiens IMR-90): 12% | MIC (E. coli ΔtolC JW5503): 0.062 µg/mL | MIC (E. coli ΔrfaC JW3596): 0.5 µg/mL | MIC (E. coli MG1655; MG1655): 8 µg/mL | MIC (S. aureus ATCC 29213): 0.125 µg/mL
